Measurements as given in patent publication EP0603240B1, “SAFENING HERBICIDAL PYRAZOLYLSULFONYLUREAS” (priority 1991, dated 1993).

Tests used:
Type in all cases: in vivo
[1] = test system: corn; test: Example 19, Procedure II: Herbicide No. 1 + ERADICANE EXTRA with added antidotes
Method: (§1) Containers were filled and compacted with a fumigated silt loam top soil to a depth of about 1.3 cm from the top of the container. A first container was designated as an untreated control, a second container was designated as a herbicide control, and a third container was designated as a herbicide + antidote test container. Each of the containers was seeded with a crop species. A measured amount of herbicide dispersed or dissolved in acetone was applied to a measured quantity of soil. To this same quantity of soil treated with herbicide, there was added a measured amount of antidote dispersed or dissolved in acetone. The quantity of soil treated with the herbicide and antidote was thoroughly mixed to incorporate the herbicide and antidote in the soil uniformly. The seed bed in the third container of soil was covered with the soil treated with the herbicide and antidote and the container was leveled. For each test series, the seed beds of the first and second containers were likewise covered by soil layers. the cover layer of the first container was not treated with herbicide or antidote.
(§2) The containers were then placed on a bench in a greenhouse and sub-irrigated as required for the duration of the test. […] Plant response is measured in terms of percent injury. Antidote efficacy is indicated as the difference in plant injury by the herbicide(s) without the antidote and with the antidote.
(§3) This procedure is the same as Procedure I, but modified in the manner that after incorporation of the chemicals (herbicide and antidote) the containers with the covered seedbed were treated with an initial overhead irrigation equivalent to 0.6 cm rainfall, then subsequently sub-irrigated as required on greenhouse benches.
(§4) In the test reported in this example, the herbicidal composition was similar to that used in Example 16 in that Herbicide No. 1 was combined with EPTC (Herbicide No. 4) as a co-herbicide and the antidotes included Nos. 1, 2, 7, 13 and 15. However, in this test the EPTC was introduced as a formulation of ERADICANE (EPTC + the antidote R-25788, i.e., Antidote No. 1) at an application rate of 8.96 kg/ha. Thus, in this test two antidotes were present, viz. R-25788 and one of the auxilliary antidotes, No. 2, 13 and 15.
The test reported in this example was performed in the same manner and with the same antidotes used in Example 18, the only difference being the substitution of the commercial herbicidal product ERADICANE® EXTRA for ERADICANE®. ERADICANE EXTRA is a formulation containing both an antidote, i.e., R-29148 (Antidote No. 5 herein), and an extender, dietholate.

[2] = test system: corn; test: Example 18, Procedure II: Herbicide No. 1 + ERADICANE (EPTC + R-25788) with auxiliary antidotes
Method: as §1, §2, §3, §4
Test procedures were those of Procedure II above.

[3] = test system: velvetleaf (Abutilon theophrasti); test: Example 24, Procedure II: Herbicide No. 1 + co-herbicides Nos. 4, 6, 7, 12 with Antidote Nos. 15 and 17-21
Method: as §1, §2, §3
In other greenhouse tests, using Procedure II described above, the safening efficacy of Antidote Nos. 15 and 17-21 was evaluated against Herbicide No. 1 in corn in the presence of Giant foxtail (Setaria fabergi) and Velvetleaf (Abutilon theophrasti) as representative annual monocotyledonous and dicotyledonous weeds, respectively.
Test results are shown in Tables 23A and 23B wherein the indicated plant inhibition represents the average of duplicate replications, with observations being made thirteen (13) days after application of the chemicals. Giant foxtail and Velvetleaf are represented by the symbols "GFT" and "VL", respectively. The data in Table 23A show the test results using the antidotes at 2.24 kg/ha, whereas in Table 23B, the antidotal rate was reduced to 0.56 kg/ha.
The tests described in Example 23 were duplicated, but in this example a variety of co-herbicides were included to ascertain the efficacy of the antidotes against combinations of Herbicide No. 1 and Herbicides Nos. 4, 6, 7 and 12 as co-herbicides. Test results are shown in Table 24, wherein the antidote application rate was 2.24 kg/ha.

[4] = Herbicide No.1 0.56 kg/ha alone
[5] = Herbicide No.1 1.12 kg/ha alone
[6] = Herb. No. 1 0.07 Kg/ha + Co-Herb. No. 4 1.12 Kg/ha + antidote 2.24 Kg/ha
[7] = Herb. No. 1 0.07 Kg/ha + Co-Herb. No. 6 0.14 Kg/ha + antidote 2.24 Kg/ha
[8] = Herb. No. 1 0.07 Kg/ha + Co-Herb. No. 7 0.28 Kg/ha + antidote 2.24 Kg/ha
[9] = Herb. No. 1 0.07 Kg/ha + Co-Herb. No. 12 0.28 Kg/ha + antidote 2.24 Kg/ha
[10] = Herb. No. 1 0.14 Kg/ha + Co-Herb. No. 4 1.12 Kg/ha + antidote 2.24 Kg/ha
[11] = Herb. No. 1 0.14 Kg/ha + Co-Herb. No. 6 0.14 Kg/ha + antidote 2.24 Kg/ha
[12] = Herb. No. 1 0.14 Kg/ha + Co-Herb. No. 7 0.28 Kg/ha + antidote 2.24 Kg/ha
[13] = Herb. No. 1 0.14 Kg/ha + Co-Herb. No. 12 0.28 Kg/ha + antidote 2.24 Kg/ha
[14] = Herb. No. 1 0.28 Kg/ha + Co-Herb. No. 4 1.12 Kg/ha + antidote 2.24 Kg/ha
[15] = Herb. No. 1 0.28 Kg/ha + Co-Herb. No. 6 0.14 Kg/ha + antidote 2.24 Kg/ha
[16] = Herb. No. 1 0.28 Kg/ha + Co-Herb. No. 7 0.28 Kg/ha + antidote 2.24 Kg/ha
[17] = Herb. No. 1 0.28 Kg/ha + Co-Herb. No. 12 0.28 Kg/ha + antidote 2.24 Kg/ha
[18] = Herb. No. 1 0.56 Kg/ha + Co-Herb. No. 4 1.12 Kg/ha + antidote 2.24 Kg/ha
[19] = Herb. No. 1 0.56 Kg/ha + Co-Herb. No. 6 0.14 Kg/ha + antidote 2.24 Kg/ha
[20] = Herb. No. 1 0.56 Kg/ha + Co-Herb. No. 7 0.28 Kg/ha + antidote 2.24 Kg/ha
[21] = Herb. No. 1 0.56 Kg/ha + Co-Herb. No. 12 0.28 Kg/ha + antidote 2.24 Kg/ha

CC1(C)OC(c2ccco2)CN1C(=O)C(Cl)Cl (centres unmarked) [Antidote No. 15, Oxazolidine, 3-(dichloroacetyl)-5-(2-furanyl)-2,2-dimethyl]
25%: corn injury ([1]; Herbicide No. 1 + ERADICANE EXTRA + added antidote, highest rates of antidotes and herbicides)

COC(=O)c1c(Cl)nn(C)c1S(=O)(=O)NC(=O)Nc1nc(OC)cc(OC)n1 [No.1]
25%: % Injury Corn [1, 5] | % Injury Corn ([2]; Herbicide No.1 0.56 kg/ha + ERADICANE 8.96 kg/ha, no added antidote) | % Injury Corn [2, 5]
30%: % Injury Corn ([1]; Herbicide No.1 0.56 kg/ha + ERADICANE EXTRA 8.96 kg/ha, no added antidote) | % Injury Corn [2, 4]
20%: % Injury Corn [1, 4] | % Injury Corn ([1]; Herbicide No.1 1.12 kg/ha + ERADICANE EXTRA 8.96 kg/ha, no added antidote) | % Injury Corn ([2]; Herbicide No.1 1.12 kg/ha + ERADICANE 8.96 kg/ha, no added antidote)

CC1COc2ccccc2N1C(=O)C(Cl)Cl (centres unmarked) [compound 17]
95%: % Inhibition VL [3, 12] | % Inhibition VL [3, 15] | % Inhibition VL [3, 18] | % Inhibition VL [3, 21]
85%: % Inhibition VL [3, 8]
98%: % Inhibition VL [3, 13] | % Inhibition VL [3, 16] | % Inhibition VL [3, 17] | % Inhibition VL [3, 19] | % Inhibition VL [3, 20]
90%: % Inhibition VL [3, 6] | % Inhibition VL [3, 7] | % Inhibition VL [3, 9] | % Inhibition VL [3, 10] | % Inhibition VL [3, 11] | % Inhibition VL [3, 14]

O=C(O)COC(c1ccccc1)c1ccccc1 [compound 18]
90%: % Inhibition VL [3, 6] | % Inhibition VL [3, 7] | % Inhibition VL [3, 8] | % Inhibition VL [3, 18]
80%: % Inhibition VL [3, 9]
99%: % Inhibition VL [3, 13]
95%: % Inhibition VL [3, 10] | % Inhibition VL [3, 11] | % Inhibition VL [3, 12] | % Inhibition VL [3, 14] | % Inhibition VL [3, 15] | % Inhibition VL [3, 16] | % Inhibition VL [3, 17] | % Inhibition VL [3, 21]
98%: % Inhibition VL [3, 19] | % Inhibition VL [3, 20]

O=C(O)COC(c1ccccc1)c1ccccc1 [compound 19]
90%: % Inhibition VL [3, 6] | % Inhibition VL [3, 7] | % Inhibition VL [3, 8] | % Inhibition VL [3, 12] | % Inhibition VL [3, 18]
98%: % Inhibition VL [3, 20]
95%: % Inhibition VL [3, 10] | % Inhibition VL [3, 11] | % Inhibition VL [3, 14] | % Inhibition VL [3, 15] | % Inhibition VL [3, 16] | % Inhibition VL [3, 17]
99%: % Inhibition VL [3, 19] | % Inhibition VL [3, 21]
85%: % Inhibition VL [3, 9] | % Inhibition VL [3, 13]

COC(=O)COC(c1ccccc1)c1ccccc1 [compound 20]
95%: % Inhibition VL [3, 7] | % Inhibition VL [3, 8] | % Inhibition VL [3, 13] | % Inhibition VL [3, 16] | % Inhibition VL [3, 18] | % Inhibition VL [3, 19] | % Inhibition VL [3, 20]
98%: % Inhibition VL [3, 15] | % Inhibition VL [3, 17] | % Inhibition VL [3, 21]
90%: % Inhibition VL [3, 6] | % Inhibition VL [3, 9] | % Inhibition VL [3, 10] | % Inhibition VL [3, 11] | % Inhibition VL [3, 12] | % Inhibition VL [3, 14]

CCSC(=O)COC(c1ccccc1)c1ccccc1 [compound 21]
85%: % Inhibition VL [3, 7]
95%: % Inhibition VL [3, 8] | % Inhibition VL [3, 13] | % Inhibition VL [3, 14] | % Inhibition VL [3, 15] | % Inhibition VL [3, 16]
98%: % Inhibition VL [3, 17] | % Inhibition VL [3, 19] | % Inhibition VL [3, 20] | % Inhibition VL [3, 21]
90%: % Inhibition VL [3, 6] | % Inhibition VL [3, 9] | % Inhibition VL [3, 10] | % Inhibition VL [3, 11] | % Inhibition VL [3, 12] | % Inhibition VL [3, 18]
